IC50 data for 31 compounds are collected here from patent publication US10913742B2, “Oxadiazolones as transient receptor potential channel inhibitors” (Genentech, Inc., priority 2017, dated 2021).

The structures appear in SMILES notation.

human TRPA1, sequence (O75762 whole entry): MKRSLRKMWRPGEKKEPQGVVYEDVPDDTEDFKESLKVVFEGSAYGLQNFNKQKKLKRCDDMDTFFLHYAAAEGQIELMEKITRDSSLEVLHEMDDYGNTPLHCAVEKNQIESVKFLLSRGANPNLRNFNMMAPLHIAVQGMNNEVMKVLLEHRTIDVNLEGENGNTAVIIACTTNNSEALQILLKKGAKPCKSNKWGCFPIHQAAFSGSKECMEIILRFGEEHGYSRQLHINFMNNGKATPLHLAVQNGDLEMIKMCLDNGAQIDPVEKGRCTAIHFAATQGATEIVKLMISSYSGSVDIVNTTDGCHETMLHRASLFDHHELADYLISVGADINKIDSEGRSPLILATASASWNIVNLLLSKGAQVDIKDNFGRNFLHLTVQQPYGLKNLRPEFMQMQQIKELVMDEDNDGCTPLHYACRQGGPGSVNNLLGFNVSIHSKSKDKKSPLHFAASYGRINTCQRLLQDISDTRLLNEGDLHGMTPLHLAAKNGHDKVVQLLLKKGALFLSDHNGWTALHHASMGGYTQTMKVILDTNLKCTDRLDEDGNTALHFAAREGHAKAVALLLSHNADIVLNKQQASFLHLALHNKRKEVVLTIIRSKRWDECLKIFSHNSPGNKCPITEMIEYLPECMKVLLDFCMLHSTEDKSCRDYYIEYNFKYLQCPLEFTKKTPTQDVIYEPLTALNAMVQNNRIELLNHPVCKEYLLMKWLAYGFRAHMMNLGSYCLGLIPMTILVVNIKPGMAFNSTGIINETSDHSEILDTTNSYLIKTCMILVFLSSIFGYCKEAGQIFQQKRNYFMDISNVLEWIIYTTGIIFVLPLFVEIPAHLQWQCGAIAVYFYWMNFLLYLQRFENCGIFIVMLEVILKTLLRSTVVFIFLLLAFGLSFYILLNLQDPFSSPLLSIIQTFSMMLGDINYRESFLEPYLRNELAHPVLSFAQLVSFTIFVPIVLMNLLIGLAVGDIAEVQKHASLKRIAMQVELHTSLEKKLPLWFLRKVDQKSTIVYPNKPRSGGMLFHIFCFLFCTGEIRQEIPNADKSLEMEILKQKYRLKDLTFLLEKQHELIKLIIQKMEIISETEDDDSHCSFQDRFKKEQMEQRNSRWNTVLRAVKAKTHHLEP

The target in this assay is human TRPA1 (Homo sapiens (Human), UniProt O75762). Briefly: hTRPA1 CHO Ca2+ FLIPR assay (block of cinnamaldehyde induced calcium influx). The format is cell-based. The settings on record: CHO cells expressing TRPA1; 75 uM cinnamaldehyde; Hill coefficient fixed to 1.5; read-out: hTRPA1 (hTRPA1 CHO Ca2+ MAX EVO (IC50)). The protocol:
CHO cells expressing TRPA1 were plated into 384-well plates, incubated overnight at 37° C., and loaded with BD calcium indicator dye for 1 hr at 37° C. followed by 15 minutes at room temperature. The assay buffer was Hank's Balanced Salt Solution (HBSS) containing 20 mM HEPES (pH readjusted to 7.4) along with 0.02% BSA.
Following dye load and plate cool down, compounds were added to the cells using FLIPR Tetra. Plates were then incubated with compounds for 20 minutes at room temperature prior to adding agonist.
The IC50 results were fit with a standard Hill function, keeping the Hill coefficient (n) fixed to 1.5. Fixing the Hill coefficient will generally reduce variability of the IC50 determination. The IC50 results were individually examined to make sure the MIN and MAX points were set correctly prior to validation of the results.
As to `Cn1cnc2ncn(Cc3nn(CCc4ccc(Cl)cc4F)c(=O)o3)c(=O)c21` [compound 41, 3-(4-chloro-2-fluorophenethyl)-5-((7-methyl-6-oxo-6H-purin-1(7H)-yl)methyl)-1,3,4-oxadiazol-2(3H)-one], the IC50 is 492 nM. As to `Cn1cnc2ncn(Cc3nn(CCc4ccc(Cl)s4)c(=O)o3)c(=O)c21` [compound 21, 3-(2-(5-chlorothiophen-2-yl)ethyl)-5-((7-methyl-6-oxo-6H-purin-1(7H)-yl)methyl)-1,3,4-oxadiazol-2(3H)-one], the IC50 worked out at 286 nM. Next, `Cn1cnc2ncn(Cc3nn(C[C@@H]4CCc5ccc(Cl)cc54)c(=O)o3)c(=O)c21` [compound 48]: 196 nM. Then `Cc1ccnc2ncn(Cc3nn(CC(F)c4ccc(Cl)cc4)c(=O)o3)c(=O)c12` (stereo in doubt) [compound 34, 5-[(5-methyl-4-oxo-pyrido[2,3-d]pyrimidin-3-yl)methyl]-3-[(2S)-2-(4-chlorophenyl)-2-fluoro-ethyl]-1,3,4-oxadiazol-2-one], with 5 nM; and `O=c1c2cccnc2ncn1Cc1nn([C@H]2C[C@](F)(c3ccc(Cl)cc3)C2)c(=O)o1` [compound 94, trans-3-[3-(4-chlorophenyl)-3-fluoro-cyclobutyl]-5-[(4-oxopyrido[2,3-d]pyrimidin-3-yl)methyl]-1,3,4-oxadiazol-2-one], with 16.8 nM. Next, `Cn1cnc2ncn(Cc3nn(C[C@H](F)c4ccc(Br)cc4)c(=O)o3)c(=O)c21` [compound 44, (R)-3-(2-(4-bromophenyl)-2-fluoroethyl)-5-((7-methyl-6-oxo-6H-purin-1(7H)-yl)methyl)-1,3,4-oxadiazol-2(3H)-one]: 10 nM; `Cc1ccnc2ncn(Cc3nn([C@H]4C[C@H](c5ccc(C#N)cc5)C4)c(=O)o3)c(=O)c12` [compound 79, 4-[3-[5-[(5-methyl-4-oxo-pyrido[2,3-d]pyrimidin-3-yl)methyl]-2-oxo-1,3,4-oxadiazol-3-yl]cyclobutyl]benzonitrile]: 2.58 nM; `Cn1cnc2ncn(Cc3nn([C@H]4C[C@H](c5cccc(Cl)c5)C4)c(=O)o3)c(=O)c21` [compound 53, 3-[3-(3-chlorophenyl)cyclobutyl]-5-[(7-methyl-6-oxo-purin-1-yl)methyl]-1,3,4-oxadiazol-2-one]: 44 nM. Turning to `Cn1cnc2ncn(Cc3nn(C[C@@H](F)c4ccc(Br)cc4)c(=O)o3)c(=O)c21` [compound 45, (S)-3-(2-(4-bromophenyl)-2-fluoroethyl)-5-((7-methyl-6-oxo-6H-purin-1(7H)-yl)methyl)-1,3,4-oxadiazol-2(3H)-one], the IC50 was determined as 1200 nM. Then `Cn1cnc2ncn(Cc3nn([C@H]4C[C@H](Oc5ccc(Cl)cc5)C4)c(=O)o3)c(=O)c21` [compound 69, 3-[3-(4-chlorophenoxy)cyclobutyl]-5-[(7-methyl-6-oxo-purin-1-yl)methyl]-1,3,4-oxadiazol-2-one], with 785 nM; and `Cn1ccc2cc(CCn3nc(Cn4cnc5ncn(C)c5c4=O)oc3=O)ccc21` [compound 29, 3-[2-(1-methylindol-5-yl)ethyl]-5-[(7-methyl-6-oxo-purin-1-yl)methyl]-1,3,4-oxadiazol-2-one], with 87 nM. Next, `Cn1cnc2ncn(Cc3nn(CCc4ccc(C#N)cc4)c(=O)o3)c(=O)c21` [compound 5, 4-(2-(5-((7-methyl-6-oxo-6H-purin-1(7H)-yl)methyl)-2-oxo-1,3,4-oxadiazol-3(2H)-yl)ethyl)benzonitrile]: 1170 nM; `Cn1cnc2ncn(Cc3nn([C@H]4C[C@H](Oc5cccc(C#N)c5)C4)c(=O)o3)c(=O)c21` [compound 62, 3-[3-[5-[(7-methyl-6-oxo-purin-1-yl)methyl]-2-oxo-1,3,4-oxadiazol-3-yl]cyclobutoxy]benzonitrile]: 45.5 nM; `Cn1cnc2ncn(Cc3nn([C@@H]4C[C@@H](F)[C@@H](c5ccc(Cl)cc5)C4)c(=O)o3)c(=O)c21` (racemic) [compound 82, 5-[(7-methyl-6-oxo-purin-1-yl)methyl]-3-[rac-(1S,3R,4R)-3-(4-chlorophenyl)-4-fluoro-cyclopentyl]-1,3,4-oxadiazol-2-one]: 43.9 nM. Then `Cn1cnc2ncn(Cc3nn(CCCOc4cccc(F)c4)c(=O)o3)c(=O)c21` [compound 74, 3-[3-(3-fluorophenoxy)propyl]-5-[(7-methyl-6-oxo-purin-1-yl)methyl]-1,3,4-oxadiazol-2-one], with 77.5 nM.

As for `Cc1ccnc2ncn(Cc3nn([C@H]4C[C@](F)(c5ccc(C#N)cc5)C4)c(=O)o3)c(=O)c12` [compound 77, 4-[1-fluoro-3-[5-[(5-methyl-4-oxo-pyrido[2,3-d]pyrimidin-3-yl)methyl]-2-oxo-1,3,4-oxadiazol-3-yl]cyclobutyl] benzonitrile], the IC50 came to 21.4 nM. Next, `Cn1cnc2ncn(Cc3nn(C[C@H](F)c4ccc(OC(F)(F)F)cc4)c(=O)o3)c(=O)c21` (racemic) [compound 109, 5-[(7-methyl-6-oxo-purin-1-yl)methyl]-3-[rac-(2R)-2-fluoro-2-[4-(trifluoromethoxy)phenyl]ethyl]-1,3,4-oxadiazol-2-one]: 19.1 nM; `Cn1cnc2c(C#N)nn(Cc3nc(CCc4ccc(Cl)cc4)no3)c2c1=O` [compound 30, 1-[[3-[2-(4-chlorophenyl)ethyl]-1,2,4-oxadiazol-5-yl]methyl]-6-methyl-7-oxo-pyrazolo[4,3-d]pyrimidine-3-carbonitrile]: 26.6 nM. Next, `Cn1cnc2ncn(Cc3nn([C@H]4C[C@H](Oc5cccc(Cl)c5)C4)c(=O)o3)c(=O)c21` [compound 70, trans-3-[3-(3-chlorophenoxy)cyclobutyl]-5-[(7-methyl-6-oxo-purin-1-yl)methyl]-1,3,4-oxadiazol-2-one]: 17.7 nM; `Cn1cnc2ncn(Cc3nn([C@H]4C[C@](F)(c5ccc(Cl)cc5)C4)c(=O)o3)c(=O)c21` [compound 105, trans-3-[3-(4-chlorophenyl)-3-fluoro-cyclobutyl]-5-[(7-methyl-6-oxo-purin-1-yl)methyl]-1,3,4-oxadiazol-2-one]: 64 nM. Then `O=c1c2cccc(=O)n2ccn1Cc1nn([C@H]2C[C@H](c3ccc(Cl)cc3)C2)c(=O)o1` [compound 65, trans-2-[[4-[3-(4-chlorophenyl)cyclobutyl]-5-oxo-1,3,4-oxadiazol-2-yl]methyl]pyrido[1,2-a]pyrazine-1,6-dione], with 21.1 nM. For `Cn1cnc2ncn(Cc3nn(CCc4ccc(C5CC5)cc4)c(=O)o3)c(=O)c21` [compound 16, 3-(4-cyclopropylphenethyl)-5-((7-methyl-6-oxo-6H-purin-1(7H)-yl)methyl)-1,3,4-oxadiazol-2(3H)-one], the IC50 turned out to be 356 nM. Next, `Cn1cnc2ncn(Cc3nn([C@@H]4CC[C@@H](c5ccc(F)cc5)C4)c(=O)o3)c(=O)c21` [compound 92, 5-[(7-methyl-6-oxo-purin-1-yl)methyl]-3-[(1R,3R)-3-(4-fluorophenyl)cyclopentyl]-1,3,4-oxadiazol-2-one]: 8.26 nM; `Cn1cnc2ncn(Cc3nn(C[C@@H](F)c4ccc5ccccc5c4)c(=O)o3)c(=O)c21` [compound 37, 5-[(7-methyl-6-oxo-purin-1-yl)methyl]-3-[(2S)-2-fluoro-2-(2-naphthyl)ethyl]-1,3,4-oxadiazol-2-one]: 332 nM; `Cn1cnc2c(C#N)nn(Cc3nn(CCc4ccc(Cl)cc4)c(=O)o3)c2c1=O` [compound 22, 1-([4-[2-(4-chlorophenyl)ethyl]-5-oxo-4,5-dihydro-1,3,4-oxadiazol-2-yl]methyl)-6-methyl-7-oxo-1H,6H,7H-pyrazolo[4,3-d]pyrimidine-3-carbonitrile]: 14 nM. Next, `Cc1ccnc2ncn(Cc3nn(CCc4ccc(Cl)cc4)c(=O)o3)c(=O)c12` [compound 7, 3-[2-(4-chlorophenyl)ethyl]-5-[(5-methyl-4-oxo-pyrido[2,3-d]pyrimidin-3-yl)methyl]-1,3,4-oxadiazol-2-one]: 12 nM; `Cn1cnc2ncn(Cc3nn(C[C@H](F)c4ccc(Cl)cc4)c(=O)o3)c(=O)c21` [compound 14, (R)-3-(2-(4-chlorophenyl)-2-fluoroethyl)-5-((7-methyl-6-oxo-6H-purin-1(7H)-yl)methyl)-1,3,4-oxadiazol-2(3H)-one]: 34 nM. Then `Cn1cnc2ncn(Cc3nn(CC(F)c4ccc5ccccc5c4)c(=O)o3)c(=O)c21` (stereo in doubt) [compound 38, 5-[(7-methyl-6-oxo-purin-1-yl)methyl]-3-[(2S)-2-fluoro-2-(2-naphthyl)ethyl]-1,3,4-oxadiazol-2-one], with 7 nM; and `Cc1ccnc2ncn(Cc3nn([C@H]4C[C@H](c5ccc(Cl)cc5)C4)c(=O)o3)c(=O)c12` [compound 107, 3-[3-(4-chlorophenyl)cyclobutyl]-5-[(5-methyl-4-oxo-pyrido[2,3-d]pyrimidin-3-yl)methyl]-1,3,4-oxadiazol-2-one], with 6.3 nM.

`Cn1cnc2ncn(Cc3nn(CCc4ccc(Cl)cc4)c(=O)o3)c(=O)c21` [compound 1, 3-[2-(4-chlorophenyl)ethyl]-5-[(7-methyl-6-oxo-purin-1-yl)methyl]-1,3,4-oxadiazol-2-one]: the IC50 worked out at 95 nM. Next, `Cc1csc2ncc(Cc3nn(CCc4ccc(Cl)cc4)c(=O)o3)c(=O)n12` [compound 47, 3-(4-chlorophenethyl)-5-((3-methyl-5-oxo-5H-thiazolo[3,2-a]pyrimidin-6-yl)methyl)-1,3,4-oxadiazol-2(3H)-one]: 65 nM.

As a reminder, the IC50 is the concentration that gives 50% inhibition.
